This is an account of results in ChEMBL document CHEMBL1143025, “Synthesis of carbamate derivatives of iejimalides. Retention of normal antiproliferative activity and localization of binding in cancer cells” (2007).

The subject of experiment [1] is PC-3. Description: Disruption of microtubules in human PC3 cells at 100 nM after 12 hrs. The class given is functional, cell-based.
Experiment [2] has as its system SK-BR-3. Description: Antiproliferative activity against human SKBr3 cells after 72 hrs by MTT assay. Format: functional. The following applies: SK-BR-3, 72 h. For orientation: Tetrazolium assays rely on reduction of a dye to a coloured formazan, in cell work by metabolically active cells.
Experiment [3] is described as follows: Antiproliferative activity against human MDA231 cells after 72 hrs by MTT assay. The following applies: MDA-MB-231, 72 h. The class given is functional.
The test system of experiment [4] is MCF7. Description: Antiproliferative activity against human MCF7 cells after 72 hrs by MTT assay. Format: functional. The settings on record: MCF7, 72 h.
Experiment [5] has as its system PC-3. In words: Antiproliferative activity against human PC3 cells after 72 hrs by MTT assay. The settings on record: PC-3, 72 h. Format: functional.

Activity calls are given as the source filed them. The calls are words filed in the database; no cut-off is given here.

Consider `CC(=O)O[C@H]1C(=O)[C@@]2(C)[C@H]([C@H](OC(=O)c3ccccc3)[C@]3(O)C[C@H](OC(=O)[C@H](O)[C@@H](NC(=O)c4ccccc4)c4ccccc4)C(C)=C1C3(C)C)[C@]1(OC(C)=O)CO[C@@H]1C[C@@H]2O`, for which the outcome in experiment [1] was Active.
Broadly, the GI50 is the concentration at which growth is held to half of that of the control. Consider `CO[C@@H]1/C=C(C)/C=C/[C@@H](C)/C=C(\C)C(=O)O[C@H](/C(C)=C/C=C(\C)CNC(=O)[C@H](COC(=O)Nc2ccccc2)NC=O)[C@@H](C)/C=C/C=C/[C@@H](OC)CC/C=C(C)\C=C\C1`, for which the GI50 in experiment [2] turned out to be 10.5 nM; in experiment [3], 8.8 nM; in experiment [4], 8.3 nM; in experiment [5], 9.9 nM.
On the same counts, the results for `CO[C@@H]1/C=C(C)/C=C/[C@@H](C)/C=C/C(=O)O[C@H](/C(C)=C/C=C(\C)CNC(=O)[C@H](COC(=O)Nc2ccccc2)NC=O)[C@@H](C)/C=C/C=C/[C@@H](OC)CC/C=C(C)\C=C\C1` are 20 nM, 12 nM, 7.5 nM and 15.3 nM.
